# From ChEMBL document CHEMBL5579853, “Recent progress in the development of hypoxia-inducible factor 2α (HIF-2α) modulators: Inhibitors, agonists, and degraders (2009-2024)” (Eur J Med Chem, 2024)
# Experiments:
# [1] = biological target: Endothelial PAS domain-containing protein 1 (Homo sapiens, UniProt Q99814); experiment: Inhibition of HIF-2alpha (unknown origin)
# [2] = biological target: T1, Vascular endothelial growth factor A, long form (Homo sapiens, UniProt P15692); experiment: Inhibition of VEGF (unknown origin) by FRET based analysis
# T1 sequence (P15692 whole entry): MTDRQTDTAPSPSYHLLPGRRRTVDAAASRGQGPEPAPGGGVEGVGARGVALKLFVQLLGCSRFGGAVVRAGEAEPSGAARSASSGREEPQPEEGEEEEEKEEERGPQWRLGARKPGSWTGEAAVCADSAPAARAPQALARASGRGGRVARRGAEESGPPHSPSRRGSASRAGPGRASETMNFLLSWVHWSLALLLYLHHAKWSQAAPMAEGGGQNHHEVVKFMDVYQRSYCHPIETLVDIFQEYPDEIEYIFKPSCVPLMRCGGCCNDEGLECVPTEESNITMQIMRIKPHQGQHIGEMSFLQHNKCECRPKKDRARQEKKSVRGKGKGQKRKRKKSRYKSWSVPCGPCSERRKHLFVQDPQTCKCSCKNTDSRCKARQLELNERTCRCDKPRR
# [3] = test system: 786-0; experiment: cells; conditions: Homo sapiens, 786-0, 72 h
# Description: Antiproliferative activity against human 786-0 cells assessed as inhibition of cell growth incubated for 72 hrs by celltiter-glo assay
# Endothelial PAS domain-containing protein 1, sequence (Q99814 whole entry, the tested form may be a part): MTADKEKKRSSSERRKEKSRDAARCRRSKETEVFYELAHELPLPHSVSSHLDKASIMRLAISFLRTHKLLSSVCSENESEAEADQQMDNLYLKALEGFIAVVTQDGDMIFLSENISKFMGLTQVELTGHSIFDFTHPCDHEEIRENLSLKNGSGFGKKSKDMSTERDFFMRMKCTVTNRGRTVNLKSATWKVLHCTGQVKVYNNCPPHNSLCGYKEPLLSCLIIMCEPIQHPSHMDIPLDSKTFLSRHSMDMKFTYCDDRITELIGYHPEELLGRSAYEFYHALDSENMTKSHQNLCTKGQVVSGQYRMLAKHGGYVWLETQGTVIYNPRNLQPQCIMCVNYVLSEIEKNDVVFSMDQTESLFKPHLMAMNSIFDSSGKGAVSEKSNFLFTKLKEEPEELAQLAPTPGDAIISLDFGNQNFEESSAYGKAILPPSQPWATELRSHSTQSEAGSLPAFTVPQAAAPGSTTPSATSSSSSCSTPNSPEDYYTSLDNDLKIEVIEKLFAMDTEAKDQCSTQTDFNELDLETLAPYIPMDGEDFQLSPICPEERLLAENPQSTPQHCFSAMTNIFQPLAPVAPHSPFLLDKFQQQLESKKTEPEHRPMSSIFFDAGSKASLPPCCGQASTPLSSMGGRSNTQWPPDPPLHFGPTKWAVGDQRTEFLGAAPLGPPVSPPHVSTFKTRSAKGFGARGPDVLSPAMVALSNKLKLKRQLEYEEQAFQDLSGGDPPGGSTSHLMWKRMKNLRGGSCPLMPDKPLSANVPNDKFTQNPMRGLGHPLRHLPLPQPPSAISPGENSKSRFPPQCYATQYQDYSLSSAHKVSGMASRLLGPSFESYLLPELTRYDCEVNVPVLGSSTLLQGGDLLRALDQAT
EC50 [1],Compound,further results
< 0.1 µM,CS(=O)(=O)c1ccc([C@H]2CCCc3cc(F)cc(C#N)c32)c2c1[C@H](O)[C@H](F)[C@@H]2F,
,Fc1c(C(F)(F)F)ncc2c1SC[C@H](F)[C@@]21CN2C=C(C(F)(F)F)C(OC(F)F)=CC2=N1,IC50 [2]: 0.015 µM
0.021 µM,O[C@H]1c2c(C(F)(F)F)ncc(OC3CC(F)(F)C3)c2[C@@H](F)[C@H]1F,
< 0.05 µM,N#Cc1cc(F)cc(Oc2ccc3c4c2C(F)CC4(O)C(F)(F)S3(=O)=O)c1 (stereo not drawn),
,CC[C@@H](Nc1cccc(F)c1)C(=O)N/N=C/c1cccc(C)c1O,IC50 [3]: 5 µM
,FC(F)OC1=CC2=N[C@]3(C[C@H]4C[C@H]4c4c3ccnc4Cl)CN2C=C1C(F)(F)F,IC50 [2]: 0.05 µM
0.34 µM,CS(=O)(=O)c1ccc(N2CCCc3ccccc32)c2c1[C@H](O)[C@H](F)C2,
2.2 µM,CS(=O)(=O)c1sc(N2CCCc3ccccc32)c2c1[C@H](O)[C@H](F)C2,
< 0.1 µM,N#Cc1cc(F)cc(Oc2ccc(S(=O)(=O)C(F)(F)F)c3[nH]ncc23)c1,
0.011 µM,O[C@@H]1CCc2c(Oc3cc(F)cc(F)c3)ncnc21,
0.029 µM,CP(C)(=O)c1ccc(Oc2cc(F)cc(F)c2)c2c1C(O)C(F)(F)C2 (stereo not drawn),
0.5 µM,OC1c2c(C(F)(F)F)cn(-c3cncc(F)c3)c2CC(F)C1F (stereo not drawn),
,CNC(=O)c1ccn2c(C(F)F)cc(-c3ccc(C)c(C)c3)nc12,IC50 [3]: < 5 µM
